According to PubChem BioAssay AID743298 (Broad Institute, 2014):
Values joined by “and” are separate entries in the source; they are usually repeats but may differ in a detail not shown here. Equal values may be shown once. Active and inactive are the calls of the source.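 The calls were made as follows: active = fitted AC50 at or below twice the top valid dose for that sample, signal falling; inconclusive = flat curve at 30 to 70 percent inhibition, or bad fit; inactive = the rest.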

Tests used:
[1] = system: C. neoformans growth, alamar blue, 24 h; assay: cell lysis of Cryptococcus neoformans, alamar blue – dry powder, set 3, mechanism study for C. neoformans antifungal project, dose response (AID 743298)
[2] = as above; details: C. neoformans growth, alamar blue, 24 h; at 35 µM (top of the series)

Cc1ccc(C(C)C)c(OCCn2c(=S)[nH]c3cccc(Cl)c32)c1
AC50 [1]: 9.67 µM

CC(C)c1ccccc1NCCn1c(=S)[nH]c2ccccc21
activity change, negative = inhibition [2]: 34.7% (inactive)

Cc1ccc2c(c1)[nH]c(=S)n2CCOc1ccccc1
AC50 [1]: 12.2 µM and 12.4 µM

Cc1cccc(OCCn2c(=S)[nH]c3ccc(C(F)(F)F)cc32)c1
activity change, negative = inhibition [2]: 39.4% (inactive)

Cc1cccc(OCCn2c(=S)[nH]c3ccccc32)c1C
activity change, negative = inhibition [2]: 51.8% (inactive)

Cc1ccc(OCCn2c(=S)[nH]c3ccccc32)c(C(C)C)c1
AC50 [1]: 12.3 µM and 10.4 µM

Fc1ccc2[nH]c(=S)n(CCOc3ccccc3)c2c1
AC50 [1]: 25.2 µM

Cc1ccc(C(C)C)c(OCCn2c(CO)nc3ccccc32)c1
activity change, negative = inhibition [2]: 8.72% (inactive)

Cc1ccc(C(C)C)c(OCCn2c(=S)[nH]c3ccc(F)cc32)c1
activity change, negative = inhibition [2]: 44.9% (inactive)

CC(C)c1ccc(OCCn2c(=S)[nH]c3ccccc32)cc1
AC50 [1]: 5.77 µM

Cc1ccc(C(C)C)c(OCCn2c(=S)[nH]c3c(Cl)cccc32)c1
activity change, negative = inhibition [2]: -22.6% (inactive)

Cc1ccc(OCCn2c(SCCO)nc3ccccc32)c(C(C)C)c1
AC50 [1]: 26 µM

Cc1ccc(C(C)C)c(OCCn2c(=S)[nH]c3c(F)cccc32)c1
activity change, negative = inhibition [2]: 16% (inactive)

Cc1ccc(C(C)C)c(OCCn2c(=S)[nH]c3cccc(C)c32)c1
activity change, negative = inhibition [2]: 35.3% (inactive)

Cc1ccc(OCCn2cnc3ccccc32)c(C(C)C)c1
AC50 [1]: > 70 µM (inactive)

Cc1cccc(OCCn2c(=S)[nH]c3cc(C(F)(F)F)ccc32)c1
activity change, negative = inhibition [2]: 19% (inactive)

COc1ccccc1OCCn1c(=S)[nH]c2ccccc21
activity change, negative = inhibition [2]: -19.4% (inactive)

Cc1ccc(C(C)C)c(OCCn2c(=S)[nH]c3ccccc32)c1
AC50 [1]: 9.65 µM and 9.22 µM

Cc1ccc(C(C)C)c(OCCn2c(=S)[nH]c3c(C)cccc32)c1
activity change, negative = inhibition [2]: 59.5% (inactive)

S=c1[nH]c2cccc(Cl)c2n1CCOc1ccccc1
AC50 [1]: 6.34 µM and 6.02 µM

Fc1ccccc1OCCn1c(=S)[nH]c2ccccc21
AC50 [1]: 23 µM

Cc1cccc(OCCn2c(=S)[nH]c3c(F)cccc32)c1
activity change, negative = inhibition [2]: -5.91% (inactive) and -16.2% (inactive)

CSc1nc2ccccc2n1CCOc1cc(C)ccc1C(C)C
activity change, negative = inhibition [2]: -25.9% (inactive)

Cc1ccccc1OCCn1c(=S)[nH]c2ccccc21
AC50 [1]: > 70 µM (inactive)

Cc1ccc(OCCn2cnc3ccccc32)cc1
AC50 [1]: 12 µM

Cc1ccc(C(C)C)c(OCCn2c(=S)[nH]c3cc(F)ccc32)c1
activity change, negative = inhibition [2]: 55% (inactive)

Cc1cccc(OCCn2c(=S)[nH]c3cc(F)ccc32)c1
AC50 [1]: 12.1 µM and 11.7 µM

CC(C)(C)c1ccccc1OCCn1c(=S)[nH]c2ccccc21
AC50 [1]: 11.2 µM

Cc1ccc(C(C)C)c(OCCn2c(=S)[nH]c3cccc(F)c32)c1
AC50 [1]: 13.9 µM

Cc1ccc(OCCn2c(C)nc3ccccc32)cc1
AC50 [1]: 21.9 µM

COc1ccc(OCCn2c(=S)[nH]c3ccccc32)cc1
AC50 [1]: 30.3 µM

CC(C)(C)c1ccc(OCCn2c(=S)[nH]c3ccccc32)cc1
AC50 [1]: 7.11 µM

Cc1ccc(OCCn2c(=S)[nH]c3ccccc32)cc1
AC50 [1]: 5.63 µM

CC(C)c1ccccc1OCCn1c(=S)[nH]c2ccccc21
AC50 [1]: 20.1 µM

O=c1[nH]c2ccccc2n1CCOc1ccccc1
AC50 [1]: 34 µM

Fc1ccc2c(c1)[nH]c(=S)n2CCOc1ccccc1
AC50 [1]: 27.5 µM and 26.8 µM

Cc1cccc2[nH]c(=S)n(CCOc3ccccc3)c12
AC50 [1]: 15.1 µM

COc1cccc(OCCn2c(=S)[nH]c3ccccc32)c1
AC50 [1]: 28.8 µM

S=c1[nH]c2ccccc2n1CCOc1ccc(Cl)cc1
AC50 [1]: 6.01 µM

Cc1cccc(OCCn2c(=S)[nH]c3ccccc32)c1
AC50 [1]: 21.1 µM

Fc1cccc2c1[nH]c(=S)n2CCOc1ccccc1
AC50 [1]: 20 µM and 22.2 µM

Fc1cccc(OCCn2c(=S)[nH]c3ccccc32)c1
AC50 [1]: 25.6 µM

Cc1ccc(C)c(OCCn2c(=S)[nH]c3ccccc32)c1
activity change, negative = inhibition [2]: 26.6% (inactive)

CCOc1ccc(OCCn2c(=S)[nH]c3ccccc32)cc1
AC50 [1]: 12.3 µM

Cc1ccc(OCCn2c(=S)[nH]c3ccccc32)c(C)c1
activity change, negative = inhibition [2]: 12.9% (inactive)

c1ccc(OCCn2cnc3ccccc32)cc1
activity change, negative = inhibition [2]: 30.3% (inactive)

CC(C)(C)c1ccc(OCCn2cnc3ccccc32)cc1
AC50 [1]: 17.5 µM

S=c1[nH]c2ccccc2n1CCOc1ccccc1
AC50 [1]: 24.4 µM

COCc1nc2ccccc2n1CCOc1ccc(C(C)(C)C)cc1
activity change, negative = inhibition [2]: 5.49% (inactive)

S=c1[nH]c2cc(Cl)ccc2n1CCOc1ccccc1
activity change, negative = inhibition [2]: 39.6% (inactive)

Cc1ccc(C(C)C)c(OCCn2c(=S)[nH]c3ccc(Cl)cc32)c1
activity change, negative = inhibition [2]: 30.7% (inactive)

S=c1[nH]c2ccccc2n1CCOc1ccccc1Cl
AC50 [1]: 34 µM
